Results as given in publication PMC4790425 (Journal of medicinal chemistry, 2015).
Residue numbers refer to the chain shown, from its start. Entries after “also recorded” stand apart in the source; their conditions may differ.

Experiments:
CCK1R WT [1] = target: T1, CCK1R WT (Homo sapiens, UniProt P32238); experiment: Competition binding with 125I-BDZ-1, CHO membranes; conditions: for α (cooperativity constant): 125I-BDZ-1 radioligand, allosteric ternary complex model
T1 sequence (P32238 1-428): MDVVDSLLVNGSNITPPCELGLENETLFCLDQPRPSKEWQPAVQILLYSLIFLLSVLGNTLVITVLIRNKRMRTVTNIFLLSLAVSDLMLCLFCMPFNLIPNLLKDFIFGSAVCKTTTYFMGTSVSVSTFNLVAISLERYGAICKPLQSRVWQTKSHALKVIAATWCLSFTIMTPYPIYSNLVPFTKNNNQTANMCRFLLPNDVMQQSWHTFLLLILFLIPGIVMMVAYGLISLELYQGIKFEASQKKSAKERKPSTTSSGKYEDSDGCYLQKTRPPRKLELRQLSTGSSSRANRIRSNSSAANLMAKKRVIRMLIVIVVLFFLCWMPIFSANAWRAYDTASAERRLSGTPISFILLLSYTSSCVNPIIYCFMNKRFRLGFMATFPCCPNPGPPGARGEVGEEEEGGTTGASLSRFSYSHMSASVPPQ

wild type rat CCK1R = target: T2, wild type rat CCK1R (Rattus norvegicus, UniProt P30551); experiment: Competition binding with 125I-BDZ-1, receptor expressed in COS cells
T2 sequence (P30551 1-444): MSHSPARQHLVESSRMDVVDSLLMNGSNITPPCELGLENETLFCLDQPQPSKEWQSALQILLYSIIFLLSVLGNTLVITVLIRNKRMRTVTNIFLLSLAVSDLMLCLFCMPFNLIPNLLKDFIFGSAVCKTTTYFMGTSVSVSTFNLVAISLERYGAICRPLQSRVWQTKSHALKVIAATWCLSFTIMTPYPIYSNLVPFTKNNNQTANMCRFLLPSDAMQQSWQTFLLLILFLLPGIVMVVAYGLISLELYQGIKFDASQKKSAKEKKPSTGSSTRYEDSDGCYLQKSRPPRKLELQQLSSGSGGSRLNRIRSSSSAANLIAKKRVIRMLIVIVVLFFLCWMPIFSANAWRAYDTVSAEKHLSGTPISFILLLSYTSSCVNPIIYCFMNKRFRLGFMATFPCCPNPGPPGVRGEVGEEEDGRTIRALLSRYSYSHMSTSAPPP

rCCK1R-Ala317,321,325 = target: T3, rCCK1R-Ala317,321,325 (Rattus norvegicus, UniProt P30551, I332A/L340A/V336A); type: binding; conditions: non-dimerizing rat mutant
T3 sequence (P30551 1-444 I332A/V336A/L340A): T2 sequence (P30551 1-444) with I332A, V336A, L340A

CCK1R WT [2] = target: T1, CCK1R WT; experiment: Competition binding with 125I-CCK, CHO membranes; conditions: 125I-CCK radioligand; allosteric ternary complex model
CCK2R WT [3] = target: T4, CCK2R WT (Homo sapiens, UniProt P32239); experiment: Intracellular calcium response, CHO-CCK2R cells; type: cell-based
T4 sequence (P32239 1-447): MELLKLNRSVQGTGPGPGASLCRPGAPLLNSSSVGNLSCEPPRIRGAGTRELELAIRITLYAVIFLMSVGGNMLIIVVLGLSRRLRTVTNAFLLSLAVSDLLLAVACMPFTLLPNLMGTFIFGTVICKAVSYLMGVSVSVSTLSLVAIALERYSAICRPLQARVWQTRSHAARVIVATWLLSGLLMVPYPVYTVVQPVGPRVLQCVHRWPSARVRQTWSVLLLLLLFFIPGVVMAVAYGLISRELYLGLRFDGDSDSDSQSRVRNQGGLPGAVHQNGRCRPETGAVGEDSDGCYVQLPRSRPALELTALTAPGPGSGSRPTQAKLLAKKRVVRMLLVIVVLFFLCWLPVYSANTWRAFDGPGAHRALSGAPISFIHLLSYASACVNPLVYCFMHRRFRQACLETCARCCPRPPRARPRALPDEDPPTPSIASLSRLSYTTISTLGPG

CCK2R WT [4] = target: T4, CCK2R WT; experiment: Competition binding with 125I-BDZ-2, CHO membranes; conditions: 125I-BDZ-2 radioligand; allosteric ternary complex model
CCK2R WT [5] = target: T4, CCK2R WT; experiment: Competition binding with 125I-CCK, CHO membranes; conditions: for α (cooperativity constant): 125I-CCK radioligand, allosteric ternary complex model; for inhibition of saturable 125I-CCK binding: maximal inhibition at CCK2R
CCK1R WT [6] = target: T1, CCK1R WT; conditions: compared with CCK at the CCK1R

| α (cooperativity constant) (CCK1R WT [1]) | α (cooperativity constant) (CCK1R WT [2]) | α (cooperativity constant) (CCK2R WT [4]) | α (cooperativity constant) (CCK2R WT [5]) | inhibition of saturable 125I-CCK binding (CCK2R WT [5]) | Structure (SMILES) | pKi, BDZ-1 binding affinity (CCK1R WT [1]; wild type human CCK1R) | pKi, BDZ-1 binding affinity (wild type rat CCK1R) | pKi, BDZ-1 binding affinity (rCCK1R-Ala317,321,325) | biological (agonist) response at the CCK2R (CCK2R WT [3]) | maximal intracellular calcium response (CCK1R WT [6]) |
| --- | --- | --- | --- | --- | --- | --- | --- | --- | --- | --- |
| – | – | – | – | – | CN1C(=O)[C@@H](NC(=O)Nc2cccc(I)c2)N=C(c2ccccc2)c2ccccc21 [BDZ-1, (S)-1-(3-iodophenyl)-3-(1-methyl-2-oxo-5-phenyl-2,3-dihydro-1H-enzo[e][1,4]diazepin-3-yl)urea] | 8.38 ± 0.16 | 9.55 ± 0.25 | 9.66 ± 0.09 | – | – |
| 0.54 ± 0.06 | ~0.00 | 0.47 ± 0.06 | 0.32 ± 0.01 | approximately 60% | CC(C)N(Cc1ccccc1)C(=O)CN1C(=O)[C@@H](Cc2c[nH]c3ccccc23)c2nnc(-c3ccccc3)n2-c2ccccc21 [CE-326597, N-benzyl-2-[(4S)-4-(1H-indol-3-ylmethyl)-5-oxo-1-phenyl-4,5-dihydro-6H-[1,2,4]triazolo[4,3-a][1,5]benzodiazepin-6-yl]-N-isopropylacetamide] | – | – | – | weak partial agonist; also recorded: very weak partial agonist | not statistically different from those elicited by CCK |
| 0.65 ± 0.08 | ~0.0 | 0.60 ± 0.04 | 0.32 ± 0.07 | approximately 60% | Cc1cc(C)cc(C[C@H]2CCCCN2C(=O)CN2C(=O)[C@@H](Cc3n[nH]c4ccccc34)c3nnc(-c4ccccc4)n3-c3ccccc32)c1 [PF-04756956, (4S)-6-{2-[(2R)-2-(3,5-dimethylbenzyl)piperidin-1-yl]-2-oxoethyl}-4-(1H-indazol-3-ylmethyl)-1-phenyl-4H-[1,2,4]triazolo[4,3-a][1,5]benzodiazepin-5(6H)-one] | – | – | – | no agonist activity at all; also recorded: no biological response | not statistically different from those elicited by CCK |
